The values below come from patent US5821386A (priority 1997, dated 1998).

Several values for one entry are separate records, joined by “and”; a condition that tells them apart may be missing. Identical values can stand only once. Entries after “also recorded” stand apart in the source; their conditions may differ. Like-named read-outs stand apart in the source and are kept apart here.

The target in assay [1] is T1, human dopamine transporter (Homo sapiens, UniProt Q01959). Put plainly: [3H]dopamine uptake by C6-hDAT cells. The note with it: for IC50: Inhibition of DA uptake, IC50, C6-hDAT cells; for DA uptake/binding: ratio.
T1 sequence (Q01959 whole entry): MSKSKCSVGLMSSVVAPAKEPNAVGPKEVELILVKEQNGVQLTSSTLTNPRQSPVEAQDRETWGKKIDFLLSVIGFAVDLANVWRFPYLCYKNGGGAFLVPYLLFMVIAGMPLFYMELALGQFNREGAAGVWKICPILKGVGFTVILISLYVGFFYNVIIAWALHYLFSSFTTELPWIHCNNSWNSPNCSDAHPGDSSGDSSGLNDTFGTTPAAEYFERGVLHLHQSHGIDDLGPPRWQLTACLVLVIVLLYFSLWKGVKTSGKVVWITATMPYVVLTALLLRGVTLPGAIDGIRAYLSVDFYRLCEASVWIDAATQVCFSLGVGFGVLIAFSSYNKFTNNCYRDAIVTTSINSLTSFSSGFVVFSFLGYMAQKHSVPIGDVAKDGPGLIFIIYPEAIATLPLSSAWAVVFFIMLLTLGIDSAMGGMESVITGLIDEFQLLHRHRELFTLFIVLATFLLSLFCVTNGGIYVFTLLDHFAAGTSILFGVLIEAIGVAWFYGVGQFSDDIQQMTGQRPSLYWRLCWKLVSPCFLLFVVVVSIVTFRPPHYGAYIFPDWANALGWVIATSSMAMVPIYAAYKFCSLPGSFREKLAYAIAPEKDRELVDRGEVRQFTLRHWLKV
Description: Drugs (10 mM stock solution) were dissolved in DMSO. The final DMSO concentration in the assay is 0.01 percent. Pipetting was performed with a Biomek 2000 robotic work station.
Uptake was initiated with the addition of [3H]DA (20 nM, specific acitivity 20-53 Ci/mmol) in a final volume of 500 μl. Mazindol (5 μM) was used to define nonspecific uptake. Cells were preincubated for 10 minutes, with drug before addition of neurotransmitter. Uptake was terminated after a 2 minute incubation by removing buffer, and the plate was placed on ice and washed twice with 1 ml ice cold phosphate-buffered saline.
Assay [2] has as its target T2, human serotonin transporter (Homo sapiens, UniProt P31645).
T2 construct: expressed in transfected cells; host or cells: HEK cells (HEK-hSERT)
Briefly: [3H]serotonin uptake by HEK-hSERT cells. It is filed as cell-based. As to conditions: for inhibition of serotonin reuptake: Example 5; for IC50: Inhibition of 5HT uptake, IC50, HEK-hSERT cells; for 5HT uptake/binding: ratio; for 5HT/DA uptake: selectivity ratio.

For assay [3], the target named is T3, human norepinephrine transporter (Homo sapiens, UniProt P23975).
T3 construct: expressed in transfected cells; host or cells: HEK cells (HEK-hNET)
T3 sequence (P23975 whole entry): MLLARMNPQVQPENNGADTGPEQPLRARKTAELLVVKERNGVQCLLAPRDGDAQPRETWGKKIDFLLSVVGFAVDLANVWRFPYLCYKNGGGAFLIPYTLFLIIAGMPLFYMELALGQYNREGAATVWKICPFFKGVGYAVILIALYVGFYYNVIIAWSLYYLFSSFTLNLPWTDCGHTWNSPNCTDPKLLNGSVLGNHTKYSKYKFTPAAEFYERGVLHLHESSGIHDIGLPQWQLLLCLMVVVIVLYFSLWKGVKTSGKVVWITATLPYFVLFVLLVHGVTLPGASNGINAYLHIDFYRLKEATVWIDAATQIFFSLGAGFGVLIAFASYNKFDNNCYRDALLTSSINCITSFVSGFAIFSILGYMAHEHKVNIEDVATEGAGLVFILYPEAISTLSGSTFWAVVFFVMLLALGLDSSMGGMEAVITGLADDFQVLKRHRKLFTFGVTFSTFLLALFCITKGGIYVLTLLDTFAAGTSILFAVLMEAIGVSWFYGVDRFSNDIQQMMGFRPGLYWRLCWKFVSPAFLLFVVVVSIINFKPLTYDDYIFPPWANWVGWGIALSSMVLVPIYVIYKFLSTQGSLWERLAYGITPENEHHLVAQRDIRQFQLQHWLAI
Briefly: biochemical. The class given is binding.

Assay [4] concerns the target T1, human dopamine transporter. Briefly: [125I]RTI-55 binding to dopamine transporter, C6-hDAT cells. Set-up: expressed in transfected cells; host or cells: C6 cells (C6-hDAT). The note with it: read-out: Binding to DA cloned transporter, [I125]RTI-55 Ki.
In assay [5] the target is T3, human norepinephrine transporter. Put plainly: cell-based. The class given is cell-based.
Assay [6] deals with T2, human serotonin transporter. Briefly: [125I]RTI-55 binding to serotonin transporter, HEK-hSERT cells.
Assay [7] can be described thus: Dose response study of induced locomotor stimulation (Example 2, Table I). It is filed as in vivo, male Swiss-Webster mice. As to conditions: IP; for Maximal Effect Relative to Cocaine / ED50: Table I; for ED50: Mus musculus, 30-60 minutes period, read-out: ED50 (dose producing 1/2 maximal stimulant activity).
Assay [8] in a line: Eight hour time course of locomotor stimulation, cocaine alone and Compound 2 alone (Example 4). As to conditions: for p, two-way ANOVA, effect of Treatment: horizontal activity counts/10 min, eight hours; for p, one-way ANOVA, effect of Treatment: log10 horizontal activity counts.
Assay [9] is described as follows: Interaction study: antagonism of cocaine-induced locomotor stimulation (Example 3). As to conditions: for effect on the stimulant effect of cocaine (words): IP, 20 mg/kg cocaine, mice; for p, one-way ANOVA, overall effect for treatment groups: log10 horizontal activity counts, 0-30 minutes.
Setting [10] is: human, hek-hnet and c6-hdat cells.
The mark [11] stands for this setting: HEK-hNET cells, read-out: Binding to NE cloned transporter, [I125]RTI-55 Ki.
[12] abbreviates: HEK-hNET cells, read-out: Inhibition of NE uptake, IC50.
Where [13] appears, read: IP, 10, 20 and 40 mg/kg cocaine.

T2 sequence (P31645 whole entry): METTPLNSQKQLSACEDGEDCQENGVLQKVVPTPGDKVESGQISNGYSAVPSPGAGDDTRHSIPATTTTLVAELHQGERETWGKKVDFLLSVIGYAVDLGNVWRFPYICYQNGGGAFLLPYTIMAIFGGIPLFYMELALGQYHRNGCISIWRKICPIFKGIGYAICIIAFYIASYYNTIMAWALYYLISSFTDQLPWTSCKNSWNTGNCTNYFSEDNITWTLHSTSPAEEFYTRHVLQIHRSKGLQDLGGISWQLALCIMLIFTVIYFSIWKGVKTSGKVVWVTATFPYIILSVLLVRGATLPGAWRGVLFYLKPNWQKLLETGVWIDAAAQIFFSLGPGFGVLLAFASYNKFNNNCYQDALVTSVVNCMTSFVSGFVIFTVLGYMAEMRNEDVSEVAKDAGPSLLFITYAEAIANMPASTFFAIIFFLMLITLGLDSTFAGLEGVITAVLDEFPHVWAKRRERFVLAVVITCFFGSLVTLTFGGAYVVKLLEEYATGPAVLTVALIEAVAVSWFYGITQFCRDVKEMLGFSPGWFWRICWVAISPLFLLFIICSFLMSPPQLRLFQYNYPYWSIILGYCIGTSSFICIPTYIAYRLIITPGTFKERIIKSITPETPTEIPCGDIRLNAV

What is called IC50 is the concentration that gives 50% inhibition. In general, Ki refers to the equilibrium dissociation constant of an inhibitor or competing ligand from its target. Turning to `CN(C)C1CC(c2ccc(Cl)c(Cl)c2)c2ccccc21` (stereo not shown) [Compound 1], the IC50 in assay [1] was 190 ± 20 nM; in assay [2], 6.7 ± 2.2 nM; in assay [5] (Inhibition of NE uptake, IC50) it was 72 ± 40 nM. Also, the DA uptake/binding in assay [1] was 6.6. Further, the “inhibition of serotonin reuptake” value in assay [2] is “selectively inhibits serotonin and norepinephrine reuptake”. The 5HT uptake/binding in assay [2] was 2.2. The 5HT/DA uptake in assay [2] was found to be 0.035. The Ki in [3] (Binding to NE cloned transporter, [I125]RTI-55 Ki) is 370 ± 60 nM; in [4], 29 ± 6 nM; in [6], 3.1 ± 1.2 nM. Moreover, the “inhibition of norepinephrine reuptake” value in assay [5] is “selectively inhibits serotonin and norepinephrine reuptake”. Moreover, the NE/DA uptake in assay [5] (setting [10]) is reported as 0.38. The compound further gave an NE uptake/binding in [5] (human, hek-hnet cells) of 0.19. Moreover, in assay [7], the “Maximal Effect Relative to Cocaine” value was 0.82. For the same compound, the ED50 in assay [7] (mice) is 4.88 mg/kg.
In the case of `CCCN(C)C1CC(c2ccc(Cl)c(Cl)c2)c2ccccc21` (stereo not shown) [Compound 2], the IC50 in assay [1] is 340 nM and 190 nM; in assay [2], 190 nM and 1500 nM; in assay [5] (setting [12]), 640 nM and 420 nM. For the same compound, in [1], the DA uptake/binding was 1.4 and 1.1. Also, the “inhibition of serotonin reuptake” value in [2] is “reduced inhibition of serotonin and norepinephrine reuptake”. Further, the Ki in assay [3] (setting [11]) was 400 nM and 260 nM; in assay [4], 180 ± 100 nM; in assay [6], 44 ± 6 nM. The “dose at maximum effect” value in assay [8] (Compound 2 IP, 280-310 min) is 12.9 mg/kg. Moreover, in [8] (Compound 2 IP, 280-310 min, vehicle constant 399), the “maximum effect estimated from fitted dose-response curve” value was 4581 counts/10 min. In addition, the “duration of stimulant effects” value in [8] (IP, Compound 2, 3 to 30 mg/kg) is listed as “Up to Seven”. Further, in [8], the “p, two-way ANOVA, effect of Treatment” value is listed as less than 0.001. Besides, the “p, one-way ANOVA, effect of Treatment” value in assay [8] (280-310 min) is on record as less than 0.001. Also, in assay [5] (Example 5), the “inhibition of norepinephrine reuptake” value was “reduced inhibition of serotonin and norepinephrine reuptake”. The NE/DA uptake in [5] (setting [10]) is 1.9 and 2.2. For the same compound, in assay [5] (human, hek-hnet cells), the NE uptake/binding was 1.6. Moreover, the “effect on the stimulant effect of cocaine (words)” value (shortened to “effect on the stimulant effect”) in assay [9] (20 mg/kg) is on record as “antagonized the stimulant effect of cocaine”; in assay [9] (listed as Compounds 2, 20 mg/kg), “Block the Effects of Cocaine in Mice”. In [9], the “p, one-way ANOVA, overall effect for treatment groups” value (from here on “p, one-way ANOVA, overall effect”) was more than 0.05. In assay [7], the “Maximal Effect Relative to Cocaine” value is 0.51. For the same compound, the ED50 in [7] (mice) is 5.65 mg/kg.
In the case of `CCN(C)C1CC(c2ccc(Cl)c(Cl)c2)c2ccccc21` (stereo not shown) [Compound 3], in assay [1], the IC50 is 270 ± 30 nM and the DA uptake/binding is recorded as 6.9. For the same compound, in assay [2], the IC50 was 24 ± 7 nM, the 5HT uptake/binding is listed as 1.5 and the 5HT/DA uptake worked out at 0.10. Besides, the “Maximal Effect Relative to Cocaine” value in assay [7] turned out to be 0.93. In addition, the ED50 in assay [7] (mice) worked out at 10.8 mg/kg.
For the compound `CCNC1CC(c2ccc(Cl)c(Cl)c2)c2ccccc21` (stereo not shown) [Compound 4], in assay [1], the midpoint of inhibition, the IC50, lay at 61 ± 12 nM and the DA uptake/binding came to 7.5. Moreover, in assay [2], the IC50 is 13 ± 4 nM, the 5HT uptake/binding is given as 6.5 and the 5HT/DA uptake came to 0.21. This compound returned a Ki in assay [6] of 2 ± 0.8 nM. In assay [7], the “Maximal Effect Relative to Cocaine” value worked out at 1.07. For the same compound, the ED50 in assay [7] (mice) was found to be 3.9 mg/kg.
As for `CC(C)(C)NC1CC(c2ccc(Cl)c(Cl)c2)c2ccccc21` (stereo not shown) [Compound 6], in assay [1], the midpoint of inhibition, the IC50, lay at 370 ± 170 nM and the DA uptake/binding is reported as 2.8. For the same compound, in [2], it took 3100 ± 1200 nM to reach half-maximal inhibition (IC50), the 5HT uptake/binding is on record as 4.2 and the 5HT/DA uptake is recorded as 8.4. Further, the IC50 in assay [5] (setting [12]) turned out to be 310 ± 50 nM. For the same compound, the NE uptake/binding in assay [5] (ratio) is reported as 2.1. Moreover, in [5] (selectivity ratio), the NE/DA uptake came to 0.84. Besides, in [9] (20 mg/kg), the “effect on the stimulant effect” value is “Block the Effects of Cocaine in Mice; also recorded: antagonized the stimulant effect of cocaine”. For the same compound, in [9], the “p, one-way ANOVA, overall effect” value is given as less than 0.5. In [7] (mice), the ED50 is 506 mg/kg.
Regarding `CN(C1CC(c2ccc(Cl)c(Cl)c2)c2ccccc21)C(C)(C)C` (stereo not shown) [Compound 7], in [1], the IC50 turned out to be 2700 ± 1500 nM and the DA uptake/binding was found to be 3.0. In addition, the IC50 in assay [2] is more than 10000 nM. In [9] (20 mg/kg), the “effect on the stimulant effect” value is “Block the Effects of Cocaine in Mice; also recorded: antagonized the stimulant effect of cocaine; also recorded: lock the effects of cocaine in laboratory mice”. The “p, one-way ANOVA, overall effect” value in assay [9] is less than 0.5. Further, the “effect on locomotor activity” value in [7] (mice) is on record as “inhibited locomotor activity; also recorded: reducing locomotor activity”.
`CC(C)N(C)C1CC(c2ccc(Cl)c(Cl)c2)c2ccccc21` (stereo not shown) [Compound 8]: in assay [1], it took 53 ± 1 nM to reach half-maximal inhibition (IC50) and the DA uptake/binding came out at 0.24. The Ki in [4] amounted to 220 ± 40 nM.
Consider `CCCNC1CC(c2ccc(Cl)c(Cl)c2)c2ccccc21` (stereo not shown) [Compound 9], for which the IC50 worked out at 51 ± 21 nM in assay [1], 240 ± 70 nM in assay [2] and 75 ± 35 nM in assay [5] (setting [12]). The DA uptake/binding in [1] is reported as 1.6. Besides, the 5HT uptake/binding in assay [2] is listed as 2.6. Moreover, the 5HT/DA uptake in [2] is given as 4.7. The Ki in [3] (setting [11]) came out at 110 ± 50 nM; in assay [4], 32 ± 6 nM; in assay [6] it was 93 ± 9 nM. In assay [5] (setting [10]), this compound showed an NE/DA uptake of 1.5. The NE uptake/binding in assay [5] (human, hek-hnet cells) was 0.68.
Regarding `CN(Cc1ccccc1)C1CC(c2ccc(Cl)c(Cl)c2)c2ccccc21` (stereo not shown) [Compound 10], in [1], half-maximal inhibition (IC50) was put at 550 ± 200 nM and the DA uptake/binding turned out to be 4.6. In addition, in assay [2], the IC50 came out at 3700 ± 1300 nM, the 5HT uptake/binding is 21 and the 5HT/DA uptake worked out at 6.7.
Consider `COC(=O)[C@H]1[C@@H](OC(=O)c2ccccc2)C[C@@H]2CC[C@H]1N2C` [cocaine], for which the “time of maximal stimulant effects” value in assay [8] (IP, 20 mg/kg cocaine) was “during the first 30 minutes”. Further, in assay [8] (setting [13]), the “duration of stimulant effects” value is on record as “up to 3 hours” and the “onset of stimulant effects” value was not above 10 min. Besides, the “dose at maximum effect” value in assay [8] (cocaine IP, first 30 minutes) is 18.3 mg/kg. For the same compound, the “maximum effect estimated from fitted dose-response curve” value in assay [8] (cocaine IP, first 30 minutes, vehicle constant 3172) was 6059 counts/10 min. For the same compound, the “p, two-way ANOVA, effect of Treatment” value in assay [8] is given as 0.089. Besides, the “p, one-way ANOVA, effect of Treatment” value in assay [8] (0-30 min) is given as less than 0.001.
